Read-outs that look alike come from different tables or passages of the source.
Assays:
[1] = test system: obese mice induced by high-fat diet; assay: Subcutaneous artemether, glucose and insulin tolerance tests in high-fat diet obese mice; format: in vivo, Male C57BL/6J mice; settings: subcutaneous injection, eight weeks
Procedure: (§1) The mice were breeded in the SPF animal laboratory of the Laboratory Animal Center of Fudan University at a room temperature of 21° C.-23° C. with a 12-hour light/dark cycle. […] When the mice were grown to 8-week old, they were randomly divided into a control group and an administration group, with 8 mice in each group. While the mice were fed with a high-fat diet, artemether was injected subcutaneously. Artemether was diluted in PBS at a concentration of […], and injected into bilateral inguinal region, with 200 μl being injected into each side. Mice in control group were injected with the same volume of PBS. Administration was continued for eight weeks.
The mice were fasted for 12-16 hours and injected intraperitoneally with glucose injection at a dose of […]. At 0 min, 30 min, 60 min, 90 min, and 120 min after injection, blood was collected from the tail vein, and blood glucose was measured with OneTouch ExtraEasy glucometer and OneTouch ExtraEasy blood glucose test strips and the results were recorded.
Insulin was injected intraperitoneally at a dose of 0.75 U/kg weight. At 0 min, 15 min, 30 min, 45 min and 60 min after injection, blood was collected from the tail vein, and blood glucose was measured.

[2] = rodent models, high concentrations; no clear evidence of dose and timing; cited from earlier work
[3] = Intraperitoneal artemether, food intake of mice on normal and high-fat diet; format: in vivo, Male C57BL/6J mice; settings: intraperitoneal 20 mg/kg
Procedure: The mice were breeded in the SPF animal laboratory of the Laboratory Animal Center of Fudan University at a room temperature of 21° C.-23° C. with a 12-hour light/dark cycle. When the mice were grown to 8-week old, they were randomly divided into four groups, a high-fat control group, a high-fat administration group, a normal administration group, and a normal control group, with 8 mice in each group. Administration groups (high-fat and normal diet) were injected intraperitoneally with artemether. Artemether for intraperitoneal injection was stored at 4° C. in coconut oil at a storage concentration of 6 mg/ml (20 mMol/L), and protected from light. Mice in administration group were injected with artemether at a dose of 20 mg/kg weight, and mice in control group were injected with 100 μl coconut oil. The diet was weighed weekly and the diet consumption of mice in each group was recorded.

[4] = test system: high fat-fed mice; assay: Subcutaneous artemether, cold exposure and UCP1 immunohistochemistry of subcutaneous fat in high fat-fed mice; format: in vivo, Male C57BL/6J mice; settings: high-fat diet, subcutaneous injection, eight weeks
Procedure: as §1, with “weeks. Mice were fasted and housed in a breeding box at 4° C. The rectal temperature was measured every 2 hours. The mice were sacrificed by cervical dislocation after 6 hours, and the inguinal fat was removed for histological analysis. The histological analysis including tissue fixation, paraffin embedding, sectioning and immunohistochemistry experiment of UCP1 was commissioned by Shanghai Saige Biotech Co., Ltd.” for “weeks.”

For `CO[C@H]1O[C@@H]2O[C@@]3(C)CC[C@H]4[C@H](C)CC[C@@H]([C@H]1C)[C@@]24OO3` [artemether], the glucose tolerance [1] is listed as “significantly better than that of mice in control group”, the insulin tolerance [1] is listed as “significantly better than that of mice in control group” and the anorexia nervosa [2] is listed as “would cause anorexia nervosa”. For the same compound, the “diet consumption of mice” value ([3]; high-fat groups) was “substantially the same as that of mice in control group”, the anorexia nervosa ([3]; normal diet and high fat diet) was “did not cause anorexia nervosa” and the “diet consumption of mice” value ([3]; normal groups) was “not different from that of mice in control group”. For the same compound, the “body temperature in an environment of 4° C.” value [4] was “significantly higher than that of mice in control group” and the “UCP1 expression in subcutaneous fat (immunohistochemistry)” value ([4]; after 6 hours at 4° C.) was “exhibited significant UCP1 expression”.

— patent publication US20190133997A1, “ARTEMISININ ANALOG, AND USE, METHOD, AND COMPOSITION FOR PROMOTING LIPID CATABOLISM AND IMPROVING SUGAR METABOLISM” (FUDAN UNIVERSITY, priority 2016, published 2019)
